These results are taken from patent US20090137572A1, “2-substituted-4-heteroaryl-pyrimidines useful for the treatment of proliferative disorders” (priority 2004, published 2009).

Common to all, as to type: biochemical
One test deals with CDK1-cyclin B (Homo sapiens, UniProt P06493). Kind of test: Kinase assay (radioactive phosphate incorporation), CDK1-cyclin B. The note with it: read-out: Kinase Inhibition pIC50 CDK1-cyclin B (converted). A digest of the protocol:
(§1)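 Recombinant kinases (2-4 μg) with polypeptide substrates in pH 7.4 MOPS/β-glycerophosphate buffer. Reactions started with 15 mM MgCl2 + 100 μM ATP containing [γ-32P]-ATP and incubated at 30° C. Filter-bound incorporated radioactivity counted by scintillation; compounds diluted from DMSO stocks into 10% DMSO buffer.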

The target in a further test is CDK2-cyclin A (Homo sapiens, UniProt P24941). Kind of test: Kinase assay (radioactive phosphate incorporation), CDK2-cyclin A. As to conditions: read-out: Kinase Inhibition pIC50 CDK2-cyclin A (converted). The method in brief:
as §1

Another test concerns the target CDK2-cycline E (Homo sapiens, UniProt P24941). Kind of test: Kinase assay (radioactive phosphate incorporation), CDK2-cyclin E. As to conditions: read-out: Kinase Inhibition pIC50 CDK2-cycline E (converted). The method in brief: as §1
The next test concerns the target CDK4-cyclin D1 (Homo sapiens, UniProt P11802). Kind of test: Kinase assay (radioactive phosphate incorporation), CDK4-cyclin D1. The note with it: read-out: Kinase Inhibition pIC50 CDK4-cyclin D1 (converted). A digest of the protocol: as §1
The target of a further test is CDK7/cyclin H (Homo sapiens, UniProt P50613). Description: CDK 7 assay (CTD peptide substrate). As to conditions: read-out: Kinase Inhibition pIC50 CDK7-cyclin H (converted). A digest of the protocol: (§2)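 Radiometric assay: recombinant human CDK9/cyclin T1 or CDK7/cyclin H with biotinylated CTD heptapeptide-repeat substrate, 100 μM ATP with [γ-32P]ATP, 15 mM MgCl2, MOPS pH 7.2, 45 min at 30 °C. Avidin-captured substrate filtered onto P81; 32P incorporation counted by scintillation.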
Chain of CDK7/cyclin H (P50613 whole entry): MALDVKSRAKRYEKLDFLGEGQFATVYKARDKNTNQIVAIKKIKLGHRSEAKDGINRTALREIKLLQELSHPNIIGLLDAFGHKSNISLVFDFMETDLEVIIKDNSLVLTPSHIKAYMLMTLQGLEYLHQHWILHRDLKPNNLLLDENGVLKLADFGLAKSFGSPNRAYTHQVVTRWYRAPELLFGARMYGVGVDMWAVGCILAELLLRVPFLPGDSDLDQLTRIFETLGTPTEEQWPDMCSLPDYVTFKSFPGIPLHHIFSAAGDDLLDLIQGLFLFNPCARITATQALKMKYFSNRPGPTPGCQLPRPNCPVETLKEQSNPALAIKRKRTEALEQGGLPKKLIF
Chain of CDK7/cyclin H (P51946 whole entry partner): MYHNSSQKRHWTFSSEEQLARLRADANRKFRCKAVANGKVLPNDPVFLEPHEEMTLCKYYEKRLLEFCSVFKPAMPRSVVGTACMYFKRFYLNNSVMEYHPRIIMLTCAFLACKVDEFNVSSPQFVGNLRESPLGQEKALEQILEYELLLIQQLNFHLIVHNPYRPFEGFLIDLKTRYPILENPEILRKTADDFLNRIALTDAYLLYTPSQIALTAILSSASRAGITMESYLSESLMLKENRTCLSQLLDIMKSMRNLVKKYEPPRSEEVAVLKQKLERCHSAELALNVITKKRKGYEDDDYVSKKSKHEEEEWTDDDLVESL

Another test concerns the target CDK9/cyclin T1 (Homo sapiens, UniProt P50750). Description: CDK 9 assay (CTD peptide substrate). The note with it: read-out: Kinase Inhibition pIC50 CDK9-cyclin T1 (converted). The method in brief:
as §2

The target in the next test is GSK3b (Homo sapiens, UniProt P49841). Kind of test: Kinase assay (radioactive phosphate incorporation), GSK-3b. The note with it: read-out: Kinase Inhibition pIC50 GSK-3b (converted). A digest of the protocol:
as §1

Test [1] concerns the target T1, Flt3 (FMS-like tyrosine kinase-3) (Homo sapiens, UniProt P36888).
T1 sequence (P36888 27-993): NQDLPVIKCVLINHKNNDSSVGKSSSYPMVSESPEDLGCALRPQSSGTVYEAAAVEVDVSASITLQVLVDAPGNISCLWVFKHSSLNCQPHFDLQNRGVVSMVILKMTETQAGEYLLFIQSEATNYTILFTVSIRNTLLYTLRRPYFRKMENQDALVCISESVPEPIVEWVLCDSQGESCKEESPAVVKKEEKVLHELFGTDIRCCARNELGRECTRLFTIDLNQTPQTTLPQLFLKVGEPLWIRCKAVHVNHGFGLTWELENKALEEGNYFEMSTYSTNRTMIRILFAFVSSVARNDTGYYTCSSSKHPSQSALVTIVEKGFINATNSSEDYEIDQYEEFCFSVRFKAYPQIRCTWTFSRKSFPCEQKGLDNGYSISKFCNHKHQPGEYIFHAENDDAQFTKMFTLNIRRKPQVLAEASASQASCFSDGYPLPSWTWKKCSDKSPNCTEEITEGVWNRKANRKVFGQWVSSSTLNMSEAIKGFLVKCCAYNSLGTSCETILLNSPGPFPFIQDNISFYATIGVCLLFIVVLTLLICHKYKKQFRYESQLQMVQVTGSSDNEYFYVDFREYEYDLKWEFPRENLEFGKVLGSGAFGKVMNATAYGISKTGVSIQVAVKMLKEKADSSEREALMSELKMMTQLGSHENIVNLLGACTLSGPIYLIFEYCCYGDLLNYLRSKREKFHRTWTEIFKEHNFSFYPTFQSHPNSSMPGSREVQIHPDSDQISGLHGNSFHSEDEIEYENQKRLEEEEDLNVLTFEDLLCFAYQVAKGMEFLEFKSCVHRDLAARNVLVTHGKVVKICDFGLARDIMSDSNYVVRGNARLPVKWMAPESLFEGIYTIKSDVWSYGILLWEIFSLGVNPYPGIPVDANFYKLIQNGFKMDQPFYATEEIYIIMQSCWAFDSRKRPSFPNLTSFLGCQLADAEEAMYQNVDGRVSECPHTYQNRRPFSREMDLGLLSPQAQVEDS
Kind of test: Kinase assay (radioactive phosphate incorporation), Flt3. The note with it: pIC50 is -log(IC50, M), read-out: Kinase Inhibition pIC50 Flt3 (converted). A digest of the protocol: as §1

In another test the target is T2, Aurora A kinase (Homo sapiens, UniProt O14965).
T2 construct: purchased
T2 sequence (O14965 1-403): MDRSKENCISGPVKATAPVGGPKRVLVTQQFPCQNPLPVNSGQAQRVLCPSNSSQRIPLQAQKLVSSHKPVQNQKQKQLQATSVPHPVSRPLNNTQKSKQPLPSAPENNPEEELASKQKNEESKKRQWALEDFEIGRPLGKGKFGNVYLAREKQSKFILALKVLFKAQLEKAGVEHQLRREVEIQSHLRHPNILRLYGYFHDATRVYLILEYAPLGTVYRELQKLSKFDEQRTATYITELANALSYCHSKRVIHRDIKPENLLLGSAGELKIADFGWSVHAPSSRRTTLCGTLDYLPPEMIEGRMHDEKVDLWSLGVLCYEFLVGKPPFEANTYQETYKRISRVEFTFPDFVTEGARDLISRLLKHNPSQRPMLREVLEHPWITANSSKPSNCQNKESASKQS
Description: Aurora-A (human) kinase assay (Kemptide substrate). As to conditions: pIC50 is -log(IC50, M); 15 μM ATP; read-out: Kinase Inhibition pIC50 Aurora A kinase (converted). The method in brief:
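Radiometric filter-binding assay: commercial aurora-A kinase (5-10 ng) with 200 μM Kemptide in MOPS/EDTA pH 7.0, started with 10 mM Mg acetate and 15 μM ATP plus [γ-33P]-ATP. Incubated 40 min at room temperature, stopped with phosphoric acid, incorporated 33P counted by scintillation.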

Chain of CDK4-cyclin D1 (P11802 whole entry): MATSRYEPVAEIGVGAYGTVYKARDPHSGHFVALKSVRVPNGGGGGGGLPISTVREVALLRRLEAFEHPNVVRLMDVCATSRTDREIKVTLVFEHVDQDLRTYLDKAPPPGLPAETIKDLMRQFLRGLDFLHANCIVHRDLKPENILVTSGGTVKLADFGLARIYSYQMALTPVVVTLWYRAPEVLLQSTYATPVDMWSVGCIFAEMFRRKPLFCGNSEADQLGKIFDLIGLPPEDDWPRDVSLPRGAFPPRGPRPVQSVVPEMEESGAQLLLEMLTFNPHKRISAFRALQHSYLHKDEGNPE
Chain of CDK4-cyclin D1 (P24385 whole entry partner): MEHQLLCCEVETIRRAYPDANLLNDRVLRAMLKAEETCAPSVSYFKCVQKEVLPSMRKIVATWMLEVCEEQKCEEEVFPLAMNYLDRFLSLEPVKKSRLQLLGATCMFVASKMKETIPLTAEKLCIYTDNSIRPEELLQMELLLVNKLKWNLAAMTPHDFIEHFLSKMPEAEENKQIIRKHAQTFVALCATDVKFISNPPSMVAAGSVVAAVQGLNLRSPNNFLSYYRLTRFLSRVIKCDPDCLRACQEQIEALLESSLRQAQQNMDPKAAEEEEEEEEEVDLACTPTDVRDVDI
Chain of GSK3b (P49841 whole entry, species assumed): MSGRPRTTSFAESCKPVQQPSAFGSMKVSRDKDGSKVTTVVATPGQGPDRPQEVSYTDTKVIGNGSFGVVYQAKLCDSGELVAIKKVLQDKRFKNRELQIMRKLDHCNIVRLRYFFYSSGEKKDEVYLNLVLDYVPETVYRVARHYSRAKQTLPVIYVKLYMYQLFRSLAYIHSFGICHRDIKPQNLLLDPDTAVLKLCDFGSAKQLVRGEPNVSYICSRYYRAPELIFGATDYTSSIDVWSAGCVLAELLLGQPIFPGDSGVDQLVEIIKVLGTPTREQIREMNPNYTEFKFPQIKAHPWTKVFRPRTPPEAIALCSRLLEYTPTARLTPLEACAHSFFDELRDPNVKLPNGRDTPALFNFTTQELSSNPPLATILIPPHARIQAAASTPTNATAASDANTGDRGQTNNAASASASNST
Chain of CDK9/cyclin T1 (P50750 whole entry): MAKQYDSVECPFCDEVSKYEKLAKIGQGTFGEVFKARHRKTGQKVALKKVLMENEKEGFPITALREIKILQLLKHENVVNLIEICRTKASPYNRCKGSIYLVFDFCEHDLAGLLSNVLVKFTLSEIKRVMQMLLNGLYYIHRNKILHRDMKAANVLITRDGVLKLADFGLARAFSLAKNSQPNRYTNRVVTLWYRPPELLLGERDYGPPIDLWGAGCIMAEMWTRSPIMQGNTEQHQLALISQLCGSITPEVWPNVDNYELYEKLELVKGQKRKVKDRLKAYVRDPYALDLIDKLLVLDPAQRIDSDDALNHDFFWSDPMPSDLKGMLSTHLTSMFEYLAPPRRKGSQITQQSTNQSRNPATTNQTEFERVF
Chain of CDK9/cyclin T1 (O60563 whole entry partner): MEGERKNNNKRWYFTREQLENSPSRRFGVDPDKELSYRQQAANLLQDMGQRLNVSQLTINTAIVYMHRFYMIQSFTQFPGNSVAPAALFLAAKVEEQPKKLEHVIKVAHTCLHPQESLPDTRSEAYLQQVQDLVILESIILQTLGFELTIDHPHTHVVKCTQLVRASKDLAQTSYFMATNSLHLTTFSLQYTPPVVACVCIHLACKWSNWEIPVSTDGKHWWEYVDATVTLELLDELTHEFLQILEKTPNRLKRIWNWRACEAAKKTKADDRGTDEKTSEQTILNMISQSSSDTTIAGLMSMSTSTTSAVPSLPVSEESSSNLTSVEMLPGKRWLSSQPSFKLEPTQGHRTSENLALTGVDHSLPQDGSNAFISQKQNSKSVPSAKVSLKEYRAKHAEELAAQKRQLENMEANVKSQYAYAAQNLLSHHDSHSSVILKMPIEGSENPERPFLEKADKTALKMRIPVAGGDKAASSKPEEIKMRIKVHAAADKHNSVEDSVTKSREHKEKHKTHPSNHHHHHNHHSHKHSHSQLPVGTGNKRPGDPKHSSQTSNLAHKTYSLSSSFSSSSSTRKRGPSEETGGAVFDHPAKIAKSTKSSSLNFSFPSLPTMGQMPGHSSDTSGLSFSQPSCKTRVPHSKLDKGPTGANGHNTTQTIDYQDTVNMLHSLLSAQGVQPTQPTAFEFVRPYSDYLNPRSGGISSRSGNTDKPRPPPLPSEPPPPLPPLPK
Chain of CDK1-cyclin B (P06493 whole entry): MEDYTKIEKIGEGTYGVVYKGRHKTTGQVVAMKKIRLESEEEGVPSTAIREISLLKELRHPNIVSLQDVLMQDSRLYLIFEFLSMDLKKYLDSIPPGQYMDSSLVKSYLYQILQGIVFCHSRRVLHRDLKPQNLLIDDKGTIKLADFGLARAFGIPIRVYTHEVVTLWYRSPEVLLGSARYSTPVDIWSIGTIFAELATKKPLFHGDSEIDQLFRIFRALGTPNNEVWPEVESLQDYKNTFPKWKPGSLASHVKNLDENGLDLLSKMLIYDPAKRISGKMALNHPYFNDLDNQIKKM
Chain of CDK1-cyclin B (P14635 whole entry partner): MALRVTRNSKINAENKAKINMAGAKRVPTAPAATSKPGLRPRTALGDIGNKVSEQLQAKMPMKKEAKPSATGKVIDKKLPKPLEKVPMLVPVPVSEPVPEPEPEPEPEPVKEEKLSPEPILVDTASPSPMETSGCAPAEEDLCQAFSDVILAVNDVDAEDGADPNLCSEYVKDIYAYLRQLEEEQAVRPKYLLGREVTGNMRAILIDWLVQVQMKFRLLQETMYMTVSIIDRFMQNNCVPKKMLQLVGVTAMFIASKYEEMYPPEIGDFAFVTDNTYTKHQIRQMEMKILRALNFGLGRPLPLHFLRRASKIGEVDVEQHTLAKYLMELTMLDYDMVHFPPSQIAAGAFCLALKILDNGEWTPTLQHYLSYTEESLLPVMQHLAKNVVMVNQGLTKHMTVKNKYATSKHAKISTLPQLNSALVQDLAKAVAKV

Regarding `Cc1nc(C)c(-c2ccnc(Nc3cccc(N4CCNCC4)c3)n2)s1` [Compound 8, [4-(2,4-Dimethyl-thiazol-5-yl)-pyrimidin-2-yl]-(3-piperazin-1-yl-phenyl)-amine], the IC50 at CDK1-cyclin B was 5010 nM; at CDK2-cyclin A, 5010 nM; at CDK2-cycline E, 2000 nM; on CDK4-cyclin D1, 2510 nM; at CDK7/cyclin H, 2000 nM; at CDK9/cyclin T1, 501 nM. Also, the results for the IC50 (at GSK3b; in test [1]; at Aurora A kinase) were 12600 nM, 50.1 nM and 39800 nM, respectively.

Take `Cc1nc(N)sc1-c1ccnc(Nc2cccc(CNS(=O)(=O)C(F)(F)F)c2)n1` [Compound 12, N-{3-[4-(2-Amino-4-methyl-thiazol-5-yl)-pyrimidin-2-ylamino]-benzyl}-C,C,C-trifluoro-methanesulfonamide]: the IC50 was 631 nM on CDK1-cyclin B; 501 nM on CDK2-cyclin A; 63.1 nM at CDK2-cycline E; 631 nM at CDK4-cyclin D1; 200 nM on CDK7/cyclin H; 100 nM on CDK9/cyclin T1. Further, the IC50 is 2000 nM on GSK3b, 794 nM in [1] and 251 nM on Aurora A kinase.

As for `CNS(=O)(=O)c1cccc(Nc2nccc(-c3sc(N)nc3C)n2)c1` [Compound 26, 3-[4-(2-Amino-4-methyl-thiazol-5-yl)-pyrimidin-2-ylamino]-N-methyl-benzenesulfonamide], the IC50 was 1260 nM on CDK1-cyclin B; 1000 nM at CDK2-cyclin A; 251 nM on CDK2-cycline E; 2510 nM at CDK4-cyclin D1; 794 nM at CDK7/cyclin H; 126 nM on CDK9/cyclin T1. The IC50 at GSK3b was 316 nM; in [1] it was 1000 nM; at Aurora A kinase, 79.4 nM.

On to `Cc1nc(N)sc1-c1ccnc(Nc2ccc(S(=O)(=O)NCCO)cc2)n1` [Compound 68, 4-[4-(2-Amino-4-methyl-thiazol-5-yl)-pyrimidin-2-ylamino]-N-(2-hydroxy-ethyl)-benzenesulfonamide], for which the IC50 was 20 nM at CDK1-cyclin B; 20 nM at CDK2-cyclin A; 10 nM at CDK2-cycline E; 1580 nM at CDK4-cyclin D1; 2000 nM at CDK7/cyclin H; 200 nM on CDK9/cyclin T1. The IC50 was 1260 nM at GSK3b, 200 nM in test [1] and 63.1 nM on Aurora A kinase.

Consider `CCNc1nc(C)c(-c2ccnc(Nc3ccc(S(C)(=O)=O)cc3)n2)s1` [Compound 17, [4-(2-Ethylamino-4-methyl-thiazol-5-yl)-pyrimidin-2-yl]-(4-methanesulfonyl-phenyl)-amine], for which the IC50 was 1000 nM on CDK1-cyclin B; 39.8 nM on CDK2-cyclin A; 50.1 nM at CDK2-cycline E; 1580 nM on CDK4-cyclin D1; 2510 nM at CDK7/cyclin H; 200 nM on CDK9/cyclin T1. Moreover, the figures for the IC50 (on GSK3b; in test [1]; on Aurora A kinase) were 2000 nM, 251 nM and 39.8 nM, respectively.

As to `Cc1nc(N)sc1-c1ccnc(Nc2cccc(S(=O)(=O)NCCO)c2)n1` [Compound 77, 3-[4-(2-Amino-4-methyl-thiazol-5-yl)-pyrimidin-2-ylamino]-N-(2-hydroxy-ethyl)-benzenesulfonamide], the IC50 at CDK1-cyclin B was 1000 nM; on CDK2-cyclin A it was 1000 nM; on CDK2-cycline E it was 126 nM; on CDK4-cyclin D1 it was 126 nM; on CDK7/cyclin H it was 398 nM; at CDK9/cyclin T1, 25.1 nM. Also, the IC50 on GSK3b was 316 nM; in test [1] it was 158 nM; at Aurora A kinase, 100 nM.

Consider `CC(=O)NCc1ccc(Nc2nccc(-c3sc(N)nc3C)n2)cc1` [Compound 16, N-{4-[4-(2-Amino-4-methyl-thiazol-5-yl)-pyrimidin-2-ylamino]-benzyl}-acetamide], for which the IC50 was 1000 nM at CDK1-cyclin B; 1260 nM on CDK2-cyclin A; 158 nM at CDK2-cycline E; 501 nM on CDK4-cyclin D1; 2000 nM at CDK7/cyclin H; 251 nM on CDK9/cyclin T1. In addition, the IC50 on GSK3b is 1000 nM; in test [1], 158 nM; at Aurora A kinase, 79.4 nM.

In the case of `CC(=O)NCc1ccc(Nc2nccc(-c3sc(C)nc3C)n2)cc1` [Compound 15, N-{4-[4-(2,4-Dimethyl-thiazol-5-yl)-pyrimidin-2-ylamino]-benzyl}-acetamide], the IC50 at CDK1-cyclin B was 501 nM; on CDK2-cyclin A, 1000 nM; on CDK2-cycline E it was 200 nM; at CDK4-cyclin D1, 631 nM; at CDK7/cyclin H, 1580 nM; on CDK9/cyclin T1, 794 nM. For the same molecule, the IC50 at GSK3b was 1000 nM; in test [1] it was 501 nM; at Aurora A kinase it was 39.8 nM.

Regarding `CCNc1nc(C)c(-c2ccnc(Nc3ccc(S(N)(=O)=O)cc3)n2)s1` [Compound 35, 4-[4-(2-Ethylamino-4-methyl-thiazol-5-yl)-pyrimidin-2-ylamino]-benzenesulfonamide], the IC50 is 31.6 nM at CDK1-cyclin B; 6.31 nM on CDK2-cyclin A; 3.98 nM at CDK2-cycline E; 20 nM at CDK4-cyclin D1; 79.4 nM at CDK7/cyclin H; 10 nM on CDK9/cyclin T1. Also, the IC50 at GSK3b was 631 nM; in test [1], 63.1 nM; on Aurora A kinase, 63.1 nM.

As to `CCNc1nc(C)c(-c2ccnc(Nc3cccc(S(=O)(=O)NCCOC)c3)n2)s1` [Compound 53, 3-[4-(2-Ethylamino-4-methyl-thiazol-5-yl)-pyrimidin-2-ylamino]-N-(2-methoxy-ethyl)-benzenesulfonamide], the IC50 at CDK1-cyclin B is 2000 nM; on CDK2-cyclin A, 2000 nM; at CDK2-cycline E it was 398 nM; on CDK4-cyclin D1 it was 158 nM; at CDK7/cyclin H, 158 nM; at CDK9/cyclin T1, 100 nM. The IC50 is 501 nM at GSK3b, 200 nM in [1] and 158 nM on Aurora A kinase.

In the case of `CNc1nc(C)c(-c2ccnc(Nc3cccc(S(=O)(=O)NC)c3)n2)s1` [Compound 21, N-Methyl-3-[4-(4-methyl-2-methylamino-thiazol-5-yl)-pyrimidin-2-ylamino]-benzenesulfonamide], the IC50 was 1000 nM on CDK1-cyclin B; 794 nM on CDK2-cyclin A; 63.1 nM on CDK2-cycline E; 39.8 nM at CDK4-cyclin D1; 251 nM on CDK7/cyclin H; 12.6 nM at CDK9/cyclin T1. Besides, the IC50 on GSK3b is 251 nM; in [1], 158 nM; on Aurora A kinase it was 79.4 nM.
